ChEMBL document CHEMBL1142916, “Synthesis and biological activity of 2,5-diaryl-3-methylpyrimido[4,5-c]quinolin-1(2H)-one derivatives” (Bioorg Med Chem, 2007)
Active and inactive are the calls of the source. The calls are words filed in the database; no cut-off is given here.

What follows are compounds tested on PC-3 (assay: Cytotoxicity against human PC3 cells after 3 days by MTT assay). Conditions: PC-3, 72 h.
Format: functional, cell-based

| Compound | IC50 [µM] |
| --- | --- |
| Cc1nc2c(-c3ccc(Br)cc3)nc3ccccc3c2c(=O)n1-c1ccccc1Br | > 20 |
| Cc1nc2c(-c3ccc(Cl)cc3)nc3ccccc3c2c(=O)n1-c1cccc(Br)c1 | 1.4 |
| Cc1nc2c(-c3ccc(Cl)cc3)nc3ccccc3c2c(=O)n1-c1ccc(Br)cc1 | 2.5 |
| COc1ccccc1-n1c(C)nc2c(-c3ccc(Cl)cc3)nc3ccccc3c2c1=O | 10.5 |
| Cc1nc2c(-c3ccc(Cl)cc3)nc3ccccc3c2c(=O)n1-c1ccccc1 | 3.2 |
| Cc1ccccc1-n1c(C)nc2c(-c3ccc(Cl)cc3)nc3ccccc3c2c1=O | > 38 |
| Cc1nc2c(-c3ccc(Br)cc3)nc3ccccc3c2c(=O)n1-c1ccc(Cl)cc1 | 1.9 |
| Cc1ccccc1-n1c(C)nc2c(-c3ccc(Br)cc3)nc3ccccc3c2c1=O | > 30 |
| Cc1ccc(-n2c(C)nc3c(-c4ccc(Cl)cc4)nc4ccccc4c3c2=O)cc1 | > 32 |
| Cc1nc2c(-c3ccc(Br)cc3)nc3ccccc3c2c(=O)n1-c1cccc(Cl)c1 | > 25 |
| Cc1nc2c(-c3ccc(Cl)cc3)nc3ccccc3c2c(=O)n1-c1ccccc1Br | > 42 |
| Cc1nc2c(-c3ccc(Br)cc3)nc3ccccc3c2c(=O)n1-c1ccc(F)cc1 | 5.5 |
| Cc1nc2c(-c3ccc(Br)cc3)nc3ccccc3c2c(=O)n1-c1cccc(Br)c1 | > 10 |
| Cc1nc2c(-c3ccc(Br)cc3)nc3ccccc3c2c(=O)n1-c1ccc(Br)cc1 | 3.3 |
| COc1ccc(-n2c(C)nc3c(-c4ccc(Cl)cc4)nc4ccccc4c3c2=O)cc1 | 1.6 |
| COc1ccccc1-n1c(C)nc2c(-c3ccc(Br)cc3)nc3ccccc3c2c1=O | 6.7 |
| Cc1nc2c(-c3ccc(Cl)cc3)nc3ccccc3c2c(=O)n1-c1ccc(Cl)cc1 | > 28 |
| Cc1ccc(-n2c(C)nc3c(-c4ccc(Br)cc4)nc4ccccc4c3c2=O)cc1 | > 21.3 |
| Cc1nc2c(-c3ccc(Br)cc3)nc3ccccc3c2c(=O)n1-c1ccccc1Cl | > 28 |
| Cc1nc2c(-c3ccc(Cl)cc3)nc3ccccc3c2c(=O)n1-c1ccccc1Cl | 2 |
| Cc1nc2c(-c3ccc(Cl)cc3)nc3ccccc3c2c(=O)n1-c1ccc(F)cc1 | 4 |
| COc1ccc(-n2c(C)nc3c(-c4ccc(Br)cc4)nc4ccccc4c3c2=O)cc1 | 2.5 |
| Cc1nc2c(-c3ccc(Br)cc3)nc3ccccc3c2c(=O)n1-c1ccccc1 | 2.2 |
| Cc1nc2c(-c3ccc(Cl)cc3)nc3ccccc3c2c(=O)n1-c1cccc(Cl)c1 | > 26 |
| COc1cc2c(c(OC)c1OC)-c1ccc(OC)c(=O)cc1[C@@H](NC(C)=O)CC2 [COLCHICINE] | 0.018 |

Species: Bos taurus
Experiment: Inhibition of bovine brain tubulin polymerization at 27 uM in presence of microtubule associated proteins
Conditions: not given

| Activity | Compound |
| --- | --- |
| inactive | Cc1nc2c(-c3ccc(Cl)cc3)nc3ccccc3c2c(=O)n1-c1cccc(Br)c1 |

Species: Bos taurus
Experiment: Inhibition of bovine brain tubulin polymerization at 40 uM in presence of microtubule associated proteins
Conditions: not given

| Activity | Compound |
| --- | --- |
| inactive | COc1ccc(-n2c(C)nc3c(-c4ccc(Cl)cc4)nc4ccccc4c3c2=O)cc1 |

Species: Bos taurus
Experiment: Inhibition of bovine brain tubulin polymerization at 27 uM in absence of microtubule associated proteins
Conditions: not given

| Activity | Compound |
| --- | --- |
| inactive | Cc1nc2c(-c3ccc(Cl)cc3)nc3ccccc3c2c(=O)n1-c1cccc(Br)c1 |

Species: Bos taurus
Experiment: Inhibition of bovine brain tubulin polymerization at 40 uM absence of microtubule associated proteins
Conditions: not given

| Activity | Compound |
| --- | --- |
| inactive | COc1ccc(-n2c(C)nc3c(-c4ccc(Cl)cc4)nc4ccccc4c3c2=O)cc1 |
